Patent US20160096016A1, “METHODS AND SYSTEMS FOR REDUCING INFLAMMATION BY NEUROMODULATION AND ADMINISTRATION OF AN ANTI-INFLAMMATORY DRUG” (priority 2008, published 2016)
Entries after “also recorded” stand apart in the source; their conditions may differ.

Key:
[1] = test system: LPS-stimulated spleen cells; test: TNF production by LPS-stimulated spleen cells; type: cell-based, BALB/c mice; conditions: 5×10^6 cell/well, LPS 500 ng/mL, 4 hours; increasing concentrations; FIG. 7A
Protocol: (§1) In this example, differing concentrations of Paraoxon were included in various individual wells (having 5×10^6 cell/well) with a total volume of 250 microliters/well, and stimulated for 4 hours with LPS (500 ng/mL).

spleen cells = test: Viability of LPS-stimulated spleen cells; conditions: concentrations of Paraoxon used in FIG. 7A; FIG. 7B
Protocol: as §1

TNF production = conditions: endotoxemia; nicotine 2 mg/kg i.p. 30 minutes prior to endotoxin
Protocol: Adult male BALB/c mice 8 to 12 weeks-old (20-25 g; Taconic) and adult male Sprague Dawley rats 8 to 12 weeks-old (250-300 g, Charles River Laboratories) were housed at 25° C. on a 12-hour light/dark cycle, and let acclimatize for one week before experiments were conducted. Water and regular rodent chow were available ad libitum. Experiments were performed under protocols approved by the Institutional Animal Care and Use Committee of the Feinstein Institute for Medical Research, North Shore-LIJ Health System.
Endotoxin (LPS from E. coli, 0111:B4, Sigma-Aldrich) was injected to animals (10 mg/kg, i.p. corresponding to a LD75 dose). Blood and spleens were harvested 10, 30, 60 or 120 minutes after LPS administration. We used ELISA to determine TNF concentration in serum (R&D Systems). Spleens were either snap frozen for further immunofluorescence analysis or disrupted in PBS plus protease inhibitor cocktail (Complete mini, Roche) with a tissue homogenizer (Polytron 3100, Kinematica). TNF content in spleen tissue was determined by ELISA and normalized to protein concentration (Protein Assay, BioRad). In some experiments, PBS or nicotine (Sigma-Aldrich) was injected 30 minutes (2 mg/kg, i.p.) prior to endotoxin administration. Animals were then euthanized 60 minutes later and spleens were harvested for TNF immunofluorescence or TNF quantification in tissue homogenates.

SMILES	TNF production by LPS-stimulated spleen cells [1]	toxicity / cell viability (spleen cells)	TNF production by TNF-producing splenic macrophages (TNF production)
CCOP(=O)(OCC)Oc1ccc([N+](=O)[O-])cc1 [Paraoxon]	dose-dependent inhibition of TNF; also recorded: dose-dependently attenuated TNF levels; also recorded: the greater the inhibition of TNF	no significant toxicity; also recorded: without affecting cell viability; also recorded: no significant loss of viability	–
CN1CCCC1c1cccnc1 (stereo not drawn) [nicotine]	–	–	significantly attenuates TNF production
